The text below walks through data of patent publication US9561228B2 (Celgene Avilomics Research, Inc., priority 2013, dated 2017).

Usually GI50 stands for the concentration giving 50% growth inhibition. The low end stands for greater sensitivity of the cells, the high end for lower sensitivity of the cells.

What all share (assay type): cell-based
Test [1] concerns HT-29 cells (colorectal adenocarcinoma). Nature of the test: Inhibition of cancer cell proliferation, HT-29 (CellTiterGlo, 72 hours). The settings on record: Homo sapiens. An outline of the steps: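 Proliferation over 72 h at 37° C was read by CellTiterGlo luminescence, translated to cell counts with a cell-density standard curve (390–50,000 cells). Compound added as 3-fold dilutions from a 5,000 nM two-fold stock to 3000 seeded HT-29 cells; GI50 from percent inhibition relative to untreated wells.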

Test [2] deals with HCT116 cells (colorectal carcinoma). Put plainly: Inhibition of cancer cell proliferation, HCT116 (CellTiterGlo, 72 hours). The settings on record: Homo sapiens, HCT-116. A digest of the protocol: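 3000 cells per well exposed to 3-fold serial compound dilutions from 5,000 nM (two-fold solution, stock level) for 72 hours at 37° C. CellTiterGlo luminescence converted to cell number via a standard curve; percent inhibition vs untreated wells, GI50 by curve fit.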
On the technique in general: In ATP-based viability assays light output follows the ATP content of the culture.

Test [3] has as its system A375 cells (malignant melanoma). Nature of the test: Inhibition of cancer cell proliferation, A375 (CellTiterGlo, 72 hours). Particulars: Homo sapiens, A-375. An outline of the steps:
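GI50 derived from % growth inhibition relative to untreated wells, after luminescence (CellTiterGlo, 10 min) was converted to cell counts using a standard curve. Compound given as 3-fold dilutions from a 2× 5,000 nM stock in serum-free DMEM; 3000 A375 cells/well, 72 h culture at 37 °C.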

As to `C=CC(=O)Nc1cc(CN2CCN(C(=O)c3cccnc3)CC2)ccc1Nc1nc(Nc2cc(OC)ncc2C)ncc1C(F)(F)F` [Compound I-389, N-(2-((2-((2-methoxy-5-methylpyridin-4-yl)amino)-5-(trifluoromethyl)pyrimidin-4-yl)amino)-5-((4-nicotinoylpiperazin-1-yl)methyl)phenyl)acrylamide], the GI50 in test [1] is below 100 nM; in test [2], 101 to 500 nM; in test [3], below 100 nM.

For `C=CC(=O)Nc1cc(C)ccc1Nc1nc(Nc2nc(OC)ncc2Cl)ncc1C(F)(F)F` [Compound I-344, N-(2-((2-((5-chloro-2-methoxypyrimidin-4-yl)amino)-5-(trifluoromethyl)pyrimidin-4-yl)amino)-5-methylphenyl)acrylamide], the GI50 in test [1] fell in the range of 101 to 500 nM; in test [2], 501 to 999 nM; in test [3], 101 to 500 nM.

As for `C=CC(=O)Nc1cc(C)ccc1Nc1nc(Nc2nc(OC)ncc2C(F)(F)F)ncc1C(F)(F)F` [Compound I-355, N-(2-((2-((2-methoxy-5-(trifluoromethyl)pyrimidin-4-yl)amino)-5-(trifluoromethyl)pyrimidin-4-yl)amino)-5-methylphenyl)acrylamide], the GI50 in test [1] is 501 to 999 nM; in test [2], above 1000 nM; in test [3] it was 101 to 500 nM.

As for `C=CC(=O)Nc1cc(C)ccc1Nc1nc(Nc2cc(OC)cnc2Cl)ncc1C(F)(F)F` [Compound I-361, N-(2-((2-((2-chloro-5-methoxypyridin-3-yl)amino)-5-(trifluoromethyl)pyrimidin-4-yl)amino)-5-methylphenyl)acrylamide], the GI50 lay within 101 to 500 nM in test [1], 501 to 999 nM in test [2] and 101 to 500 nM in test [3].

For `C=CC(=O)Nc1ccccc1Nc1nc(Nc2cc(OC)nc(N3CCN(C(C)=O)CC3)c2)ncc1C(F)(F)F` [Compound I-92], the GI50 in test [1], in test [2] and in test [3] was below 100 nM each time.

`C=CC(=O)Nc1cc(C)ccc1Nc1nc(Nc2cc(OCCOC)ncc2C)ncc1C(F)(F)F` [Compound I-359, N-(2-((2-((2-(2-methoxyethoxy)-5-methylpyridin-4-yl)amino)-5-(trifluoromethyl)pyrimidin-4-yl)amino)-5-methylphenyl)acrylamide]: the GI50 in test [1] was 501 to 999 nM; in test [2] it was above 1000 nM; in test [3] it was 101 to 500 nM.
